Measured values as given in patent US20180055844A1 (Celgene Corporation, priority 2011, published 2018).
Where “and” joins values, the source holds several entries; their conditions need not be identical. Equal values may be shown once. Read-outs that look alike come from different tables or passages of the source.

Legend:
[1] = tested on: lipopolysaccharide-stimulated human peripheral blood mononuclear cells (hPBMCs); test: PBMC cytokine profiling; assay type: cell-based; details: for IC50: LPS-stimulated hPBMC
[2] = tested on: HIF-1α; test: HIF-1α protein expression in solid tumor cell lines; assay type: cell-based; details: 1 μM
[3] = Pharmacokinetics in monkeys on Day 1 and Day 27; details: monkey, in vivo; for AUC(0-t): read-out: AUC0-24
[4] = tested on: pRb, IRF4; test: Western blot of cell cycle regulators in H929 cells; assay type: cell-based
[5] = tested on: HUVEC; test: HUVEC tube formation; assay type: cell-based, human
[6] = tested on: blood vessel growth; test: Mouse Matrigel angiogenesis assay; assay type: in vivo; details: 30 mpk
[7] = tested on: MDA-MB-453; test: Solid tumor cell colony formation; assay type: cell-based; details: Homo sapiens
[8] = tested on: HCT15; test: Invasion of solid tumor cells; assay type: cell-based
[9] = tested on: MM cell lines U266, 100-1 and 1K-2; test: Proliferation of CRBN-sensitive MM cell lines; assay type: cell-based
[10] = tested on: HCT116; test: Solid tumor cell colony formation; assay type: cell-based; details: Homo sapiens, HCT-116
[11] = tested on: HUVEC; test: HUVEC proliferation; assay type: cell-based, human
[12] = target: T1, CRBN (Homo sapiens, UniProt Q96SW2); test: CRBN interaction; assay type: binding; details: dose-dependent
T1 construct: endogenous in cells; HepG2 hepatocellular carcinoma cells

[13] = tested on: OVCAR-3; test: Solid tumor cell colony formation; assay type: cell-based; details: Homo sapiens
[14] = tested on: SNB-19; test: Invasion of solid tumor cells; assay type: cell-based; details: Homo sapiens; SNB-19 (PDGF), glioblastoma
[15] = tested on: TMD8; test: 5 day 3H thymidine incorporation assay; assay type: cell-based; details: Homo sapiens; TMD8, ABC subtype
Excerpt: (§1) Results of 3 independent experiments are shown (mean±SD) in FIG. 2. […] ABC-subtype cells appear more sensitive to the antiproliferative effect than other subtype cells including GCB-DLBCL and PMBL cells.

[16] = tested on: OCI-Ly10; test: 5 day 3H thymidine incorporation assay; assay type: cell-based; details: Homo sapiens; OCI-Ly10, ABC subtype
Excerpt: as §1

[17] = tested on: OCI-Ly19; test: 5 day 3H thymidine incorporation assay; assay type: cell-based; details: Homo sapiens; OCI-Ly19, GCB subtype
Excerpt: as §1

[18] = tested on: WSU-DLCL2; test: 5 day 3H thymidine incorporation assay; assay type: cell-based; details: Homo sapiens, WSUDLCL2; WSU-DLCL2, GCB subtype
Excerpt: as §1

[19] = tested on: Karpas-1106P; test: 5 day 3H thymidine incorporation assay; assay type: cell-based; details: Homo sapiens, PMBL
Excerpt: as §1

[20] = tested on: U2932; test: 5 day 3H thymidine incorporation assay; assay type: cell-based; details: Homo sapiens; U2932, ABC subtype
Excerpt: as §1

[21] = tested on: RIVA; test: 5 day 3H thymidine incorporation assay; assay type: cell-based; details: ABC subtype
Excerpt: as §1

[22] = tested on: SUDHL4; test: 5 day 3H thymidine incorporation assay; assay type: cell-based; details: Homo sapiens, SU-DHL-4; SUDHL4, GCB subtype
Excerpt: as §1

[23] = Oral pharmacokinetics; assay type: in vivo, SD rat
[24] = tested on: B cell; test: B cell proliferation; assay type: cell-based
[25] = tested on: NCI-H929 MM xenograft; test: NCI-H929 MM xenograft model; assay type: in vivo; details: day 19
[26] = female, 0.15 mg/kg, Day 1, 0.15 mg/kg, female
[27] = female, 0.15 mg/kg, Day 27, 0.15 mg/kg, female
[28] = female, 1.5 mg/kg, Day 1, 1.5 mg/kg, female
[29] = female, 1.5 mg/kg, Day 27, 1.5 mg/kg, female
[30] = female, 15 mg/kg, Day 1, 15 mg/kg, female
[31] = female, 15 mg/kg, Day 27, 15 mg/kg, female
[32] = male, 0.15 mg/kg, Day 1, 0.15 mg/kg, male
[33] = male, 0.15 mg/kg, Day 27, 0.15 mg/kg, male
[34] = male, 1.5 mg/kg, Day 1, 1.5 mg/kg, male
[35] = male, 1.5 mg/kg, Day 27, 1.5 mg/kg, male
[36] = male, 15 mg/kg, Day 1, 15 mg/kg, male
[37] = male, 15 mg/kg, Day 27, 15 mg/kg, male
[38] = plasma, 30 mg/kg, SD rat, 30 mpk po

T1 sequence (Q96SW2 whole entry): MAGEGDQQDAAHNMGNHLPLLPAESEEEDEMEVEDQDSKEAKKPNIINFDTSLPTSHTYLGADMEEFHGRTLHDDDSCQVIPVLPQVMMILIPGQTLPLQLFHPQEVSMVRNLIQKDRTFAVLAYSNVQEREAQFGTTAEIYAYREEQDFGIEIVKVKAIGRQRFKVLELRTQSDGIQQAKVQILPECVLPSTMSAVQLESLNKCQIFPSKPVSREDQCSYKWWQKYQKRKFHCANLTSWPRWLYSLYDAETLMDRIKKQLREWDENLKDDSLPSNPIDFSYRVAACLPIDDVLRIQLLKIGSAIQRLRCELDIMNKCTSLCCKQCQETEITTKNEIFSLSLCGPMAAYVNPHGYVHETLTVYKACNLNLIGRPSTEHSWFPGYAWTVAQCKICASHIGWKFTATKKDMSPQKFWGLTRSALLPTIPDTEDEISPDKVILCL

Cc1nc2cccc(N)c2c(=O)n1C1CCC(=O)NC1=O (stereo not shown) [compound of Formula I, 3-(5-amino-2-methyl-4-oxo-4H-quinazolin-3-yl)-piperidine-2,6-dione]
activity at 0.1 µM ([1]; read-out: IL-10 production, mean percent of control): 480% | activity at 0.1 µM ([1]; read-out: MCP-1 production, mean percent of control): 236% | activity at 0.1 µM ([1]; read-out: RANTES production, mean percent of control): 131% | IC50 ([1]; read-out: IL-8 production IC50): > 10000 nM | IC50 ([1]; read-out: MIP-1α production IC50): 300 nM | IC50 ([1]; read-out: MIP-1β production IC50): > 10000 nM | % Inhibition of HIF-1α protein expression ([2]; 786-O (renal cancer)): 41.70% | % Inhibition of HIF-1α protein expression ([2]; DU145 (prostate cancer)): 66.01% | % Inhibition of HIF-1α protein expression ([2]; HCT15 (colorectal cancer)): 69.26% | % Inhibition of HIF-1α protein expression ([2]; HCT116 (colorectal cancer)): 74.60% | % Inhibition of HIF-1α protein expression ([2]; HT29 (colorectal cancer)): 78.54% | % Inhibition of HIF-1α protein expression ([2]; MCF-7 (breast cancer)): 74.82% | % Inhibition of HIF-1α protein expression ([2]; Miapaca-3 (pancreatic cancer)): 33.72% | % Inhibition of HIF-1α protein expression ([2]; Ovcar-3 (ovarian cancer)): 63.39% | % Inhibition of HIF-1α protein expression ([2]; Skov-3 (ovarian cancer)): 100.00% | % Inhibition of HIF-1α protein expression ([2]; U87 (brain cancer)): 73.81% | Cmax [3, 26]: 63 ng/mL | Tmax [3, 26]: 2 h | AUC(0-t) [3, 26]: 450 ng·h/mL | Cmax [3, 27]: 57 ng/mL | Tmax [3, 27]: 2 to 4 h | AUC(0-t) [3, 27]: 450 ng·h/mL | Cmax [3, 28]: 680 ng/mL | Tmax [3, 28]: 2 h | AUC(0-t) [3, 28]: 4100 ng·h/mL | Cmax [3, 29]: 590 ng/mL | Tmax [3, 29]: 0.5 to 2 h | AUC(0-t) [3, 29]: 4200 ng·h/mL | Cmax [3, 30]: 4200 ng/mL | Tmax [3, 30]: 2 to 4 h | AUC(0-t) [3, 30]: 38000 ng·h/mL | Cmax [3, 31]: 7000 ng/mL | Tmax [3, 31]: 4 h | AUC(0-t) [3, 31]: 75000 ng·h/mL | Cmax [3, 32]: 36 ng/mL | Tmax [3, 32]: 2 to 4 h | AUC(0-t) [3, 32]: 430 ng·h/mL | Cmax [3, 33]: 53 ng/mL | Tmax [3, 33]: 4 h | AUC(0-t) [3, 33]: 570 ng·h/mL | Cmax [3, 34]: 510 ng/mL | Tmax [3, 34]: 2 to 4 h | AUC(0-t) [3, 34]: 4600 ng·h/mL | Cmax [3, 35]: 560 ng/mL | Tmax [3, 35]: 2 h | AUC(0-t) [3, 35]: 5700 ng·h/mL | Cmax [3, 36]: 4100 ng/mL | Tmax [3, 36]: 4 h | AUC(0-t) [3, 36]: 51000 ng·h/mL | Cmax [3, 37]: 5800 ng/mL | Tmax [3, 37]: 2 to 4 h | AUC(0-t) [3, 37]: 72000 ng·h/mL | phosphorylation of pRB [4]: decreased | total level of protein IRF4 [4]: decreased | VEGF and bFGF-induced HUVEC tube formation and migration [5]: weakly inhibited | blood vessel growth [6]: significantly inhibited | inhibition at 10 µM [7]: -7% | IC50 ([8]; Homo sapiens, HCT-15, HCT15 (bFGF), colorectal): 7.2 nM | ability to inhibit invasion of HCT-15 cells ([8]; with siCRBN): reduced | proliferation of CRBN-sensitive MM cell lines U266, 100-1 and 1K-2 [9]: inhibit the proliferation | inhibition at 10 µM [10]: 13% | HUVEC proliferation [11]: did not inhibit | growth factor-induced HUVEC proliferation ([11]; growth factor-induced): either enhanced or did not inhibit | interaction with HepG2 HCC CRBN [12]: interacts | interaction with endogenous myeloma CRBN [12]: interact | inhibition at 10 µM [13]: 18% | IC50 [14]: 160 nM | IC50 [15]: 440 nM | IC50 [16]: 8.5 nM | IC50 [17]: > 10000 nM | IC50 [18]: 790 to 2100 nM | IC50 [19]: 580 to 710 nM | IC50 [20]: 110 to 120 nM | IC50 [21]: 4300 nM | IC50 [22]: > 10000 nM | F ([23]; SD rat, 30 mpk po): 53% | AUC [23, 38]: 25000 ng·h/mL and 87 µM·h | Cmax [23, 38]: 4800 ng/mL and 17 µM | half-life ([23]; plasma, oral, 30 mpk, SD rat): 2.7 h | clearance ([23]; plasma, SD rat, read-out: CLp): 11 mL/min/kg | Exposures (AUC(0-t)) versus dose ([23]; up to 30 mg/kg, CD-IDS rat): increased in a dose proportional manner | EC50 [24]: 15 nM | tumor growth inhibition ([25]; 0.3 mg/kg): 59% | tumor growth inhibition ([25]; 3 mg/kg): 73% | tumor growth inhibition ([25]; 30 mg/kg): 93%
